Assay results taken from patent US5420261A, “Glycosides of 3'-deoxyaquayamycin antibiotics” (Schering Corporation, priority 1992, dated 1995).
Values after ≈ are worked out from the molar mass of the structure shown. Read-outs that look alike come from different tables or passages of the source.

How the values were obtained:
Candida (8 species) = experiment: In vitro antifungal activity in Sabouraud dextrose broth, Candida (8 species); format: cell-based; conditions: read-out: GEOMETRIC MEAN MIC
[1] = test system: Dermatophytes (seven species); experiment: In vitro antifungal activity in Sabouraud dextrose broth, dermatophytes (seven species); format: cell-based; conditions: read-out: GEOMETRIC MEAN MIC
Mycelial = experiment: In vitro activity in Eagles Medium Essential Medium (EMEM), Mycelial; format: cell-based; conditions: read-out: GEOMETRIC MEAN MIC
S. aureus = experiment: Bioautography after thin layer chromatography, S. aureus; format: cell-based; conditions: TLC in 2:2:1 chloroform: methanol: pH 3.5 acetate buffer
From the text: (§1) The medium employed for the fermentation contained beef extract, tryptone, yeast extract, cerelose and soluble starch as the major sources of nitrogen and carbon, respectively.

E. coli = experiment: Bioautography after thin layer chromatography, E. coli; format: cell-based; conditions: TLC in 2:2:1 chloroform: methanol: pH 3.5 acetate buffer
From the text: as §1

C. abicans = experiment: Bioautography after thin layer chromatography, C. abicans; format: cell-based; conditions: TLC in 2:2:1 chloroform: methanol: pH 3.5 acetate buffer
From the text: as §1

Solubility = format: physicochemical
[2] = Sabouraud Dextrose Broth Medium, Candida (8 species)
[3] = Sabouraud Dextrose Broth Medium, Dermatophytes (seven species)

Structure (SMILES)	MIC (Candida (8 species); Candida) [µg/mL]	MIC [1] [µg/mL]	MIC (Mycelial) [µg/mL]	MIC (Candida (8 species); [2]) [µg/mL]	MIC [1, 3] [µg/mL]	biological activity by bioautography (S. aureus)	biological activity by bioautography (E. coli)	biological activity by bioautography (C. abicans)	solubility in dichlormethane, chloroform and dimethyl sulfoxide (Solubility)	solubility in hexane and water (Solubility)	solubility in methanol, diethyl ether and ethyl acetate (Solubility)
COc1cccc2c1C(=O)c1c(O)c3c(c(O)c1C2=O)C[C@@](O)(C(=O)CO)C[C@@H]3O[C@H]1C[C@H](N)[C@H](O)[C@H](C)O1 [Adriamycin, reference compound]	≥ 128	≥ 128	128 (≈ 235 µM)	–	–	–	–	–	–	–	–
CC1OC(OC2(C)CC(=O)C3(O)C4=C(C=CC3(O)C2)C(=O)c2c(ccc(C3CCC(OC5CCC(O)C(C)O5)C(C)O3)c2O)C4=O)C=CC1=O (stereo not drawn) [Compound 1b]	–	–	95 (≈ 137 µM)	≥ 128	≥ 132	biologically active	biologically active	biologically active	soluble in dichlormethane, chloroform and dimethyl sulfoxide	insoluble in hexane and water	less soluble in methanol, diethyl ether and ethyl acetate
CC1OC(OC2CCC(c3ccc4c(c3O)C(=O)C3=C(C4=O)C4(O)C(=O)CC(C)(OC5C=CC(=O)C(C)O5)CC4(O)C=C3)OC2C)C=CC1=O (stereo not drawn) [Compound 1a]	–	–	78 (≈ 113 µM)	≥ 43	≥ 5	biologically active	biologically active	biologically active	soluble in dichlormethane, chloroform and dimethyl sulfoxide	insoluble in hexane and water	less soluble in methanol, diethyl ether and ethyl acetate
